Test results as given in patent US20250340671A1, “METHODS AND PHARMACEUTICAL COMPOSITIONS FOR REDUCING THE NEURO[…] OF COCAINE” (University of Cincinnati, priority 2022, published 2025).

Experiments:
[1] = in vivo; cited from earlier work
[2] = test system: lever-pressing behavior in rats; experiment: Single-dose reinstatement (SDR) of lever-pressing after 12 μmol/kg cocaine; format: in vivo, Male Sprague-Dawley rats; conditions: for average difference in latency between vehicle and SCH23390: 10 nmol/kg SCH23390 alone, absence of h2E2; for mean latency of lever-pressing behavior: 0 nmol/kg gave 17.11, FIG. 6; for mean duration of lever-pressing: 0 nmol/kg gave 35.44, FIG. 7

SMILES: CN1CCc2cc(Cl)c(O)cc2[C@@H](c2ccccc2)C1 [SCH23390]
- t-max [1]: approximately 30 min
- average difference in latency between vehicle and SCH23390 ([2]; FIG. 9): about 2.81 minutes
- average difference in latency between vehicle and SCH23390 ([2]; FIG. 9, listed as SCH233390): 2.81 min
- average duration of lever-pressing activity ([2]; 10 nmol/kg SCH23390 before SDR, in the presence of h2E2 (4 separate days from day seven after h2E2), FIG. 10): 9.28 min
- average decrease in latency versus the prior day (h2E2 alone) ([2]; 10 nmol/kg SCH23390 before SDR, in the presence of h2E2 (from seven days after 360 umol/kg h2E2), FIG. 9): 2.56 min
- mean latency of lever-pressing behavior ([2]; SCH23390 alone 10 nmol/kg IV before 12 μmol/kg cocaine SDR): 12.17
- mean duration of lever-pressing ([2]; SCH23390 alone 10 nmol/kg): 23.16
- mean latency of lever-pressing behavior ([2]; SCH23390 alone 20 nmol/kg IV before 12 μmol/kg cocaine SDR): 5.17
- mean duration of lever-pressing ([2]; SCH23390 alone 20 nmol/kg): 5.43
- mean latency of lever-pressing behavior ([2]; SCH23390 alone 30 nmol/kg IV before 12 μmol/kg cocaine SDR): 1.72
- mean duration of lever-pressing ([2]; SCH23390 alone 30 nmol/kg): 2.05
- average latency ([2]; days with 10 nmol/kg SCH23390 in the presence of h2E2, FIG. 8): 9.93 min
